Source: patent publication US11426473B2, “Nitrogen-containing compound or salt thereof, or metal complex thereof” (FUJIFILM Corporation, priority 2013, dated 2022)
Where two headings read alike, the source gives them in different places. Blank lines part the entries; values can stand above or below the compound they belong to.

Key:
[1] = tested on: T98G cell (human glioblastoma) subcutaneous tumor; experiment: Treatment experiment of subcutaneously T98G-transplanted model using [90Y]-(A8); assay type: in vivo, mouse; conditions: Dose 11.1 MBa, 1 dose
Description: (§1) U87MG cells were subcutaneously transplanted at 1×10^7 cells/mouse to the right flank of Balb/c Slc-nu/nu (SLC Japan, Inc., male, 6 weeks old). After 2 weeks, mice whose tumors became 100 to 500 mm^3 were grouped. Phosphate-buffered saline (PBS) or the radiolabeled compound [90Y]-(P2) was administered to the tail veins of the mice, and their tumor volumes were measured. When the tumor volumes of the mice in the PBS group exceeded 2,000 mm^3, which is a humanistic endpoint, the antitumor effect was evaluated. The evaluation values were the rate of inhibition of tumor growth ((1−(Average tumor volume of the compound administration group−Average tumor volume of the compound administration group before administration)/(Average tumor volume of the PBS group−Average tumor volume of the PBS group before administration))×100 (provided that the rate of inhibition exceeding 100% was indicated as 100%)) and the number of individuals having a tumor volume equal to or smaller than that at the start of the experiment (the number of individuals having tumor regression).
A mixture of a T98G cell suspension (human glioblastoma, 1×10^7 cells) and Matrigel (Becton, Dickinson and Company) in equal amounts was subcutaneously transplanted to the right flank of Balb/cAJcl-nu/nu (CLEA Japan, Inc., female, 6 weeks old). After 90 days, the mice were grouped when their tumors BECAME 100 to 400 mm^3. Phosphate-buffered saline (PBS) or the radiolabeled compound [^90Y]-(A8) was administered to the tail veins of the mice, and their tumor volumes were measured. The evaluation values were calculated in the same way as in Test Example 8 to evaluate the antitumor effect.

[2] = tested on: U87MG cells subcutaneous tumor; experiment: Treatment experiment of subcutaneously U87MG-transplanted model using [90Y]-(A8); assay type: in vivo, mouse; conditions: 1 dose; for Rate of inhibition: 12 days after administration, above 100% indicated as 100%; for Tumor volume 12 days after administration / Tumor volume At start of administration: n 10, Mean + SD; for Tumor volume At start of administration: baseline; for The number of individuals having tumor regression: of n 10
Description: as §1
U87MG cells were subcutaneously transplanted at 1×10^7 cells/mouse to the right flank of Balb/cAJcl-nu/nu (CLEA Japan, Inc., male, 6 weeks old). After 2 weeks, mice whose tumors became 100 to 500 mm^3 were grouped. Phosphate-buffered saline (PBS) or the radiolabeled compound [^90Y]-(A8) was administered to the tail veins of the mice, and their tumor volumes were measured. The evaluation values were calculated in the same way as in Test Example 8 to evaluate the antitumor effect.

[3] = target: T1, Integrin αvβ3 (Homo sapiens, UniProt P05106+P06756); experiment: Integrin αvβ3 binding affinity test
T1 construct: purchased Chemicon International, Inc
T1 sequence (P06756 31-889 limits assumed): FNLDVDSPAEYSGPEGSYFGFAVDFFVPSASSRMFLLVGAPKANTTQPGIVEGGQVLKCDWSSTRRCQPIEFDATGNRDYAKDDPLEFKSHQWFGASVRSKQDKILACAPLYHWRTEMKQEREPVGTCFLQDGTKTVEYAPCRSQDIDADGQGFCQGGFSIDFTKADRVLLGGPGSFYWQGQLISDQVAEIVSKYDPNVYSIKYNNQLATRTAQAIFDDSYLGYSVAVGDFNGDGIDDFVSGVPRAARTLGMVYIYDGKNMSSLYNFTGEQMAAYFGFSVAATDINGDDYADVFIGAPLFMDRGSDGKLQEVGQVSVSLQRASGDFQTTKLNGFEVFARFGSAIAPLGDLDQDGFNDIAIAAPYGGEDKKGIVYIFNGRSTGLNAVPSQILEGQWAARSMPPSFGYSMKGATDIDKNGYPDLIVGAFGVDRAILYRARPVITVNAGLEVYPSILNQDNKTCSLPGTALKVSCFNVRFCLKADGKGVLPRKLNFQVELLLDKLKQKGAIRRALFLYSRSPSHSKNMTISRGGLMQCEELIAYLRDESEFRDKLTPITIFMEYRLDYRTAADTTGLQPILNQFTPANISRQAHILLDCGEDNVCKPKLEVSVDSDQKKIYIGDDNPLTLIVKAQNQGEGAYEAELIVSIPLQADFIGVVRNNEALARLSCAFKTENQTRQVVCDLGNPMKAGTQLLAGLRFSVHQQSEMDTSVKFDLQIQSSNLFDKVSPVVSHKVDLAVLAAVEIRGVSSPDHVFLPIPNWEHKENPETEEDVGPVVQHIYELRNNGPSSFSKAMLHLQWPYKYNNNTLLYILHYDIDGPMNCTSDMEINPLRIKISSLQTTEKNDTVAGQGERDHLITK
T1 sequence (P06756 891-1048 partner limits assumed): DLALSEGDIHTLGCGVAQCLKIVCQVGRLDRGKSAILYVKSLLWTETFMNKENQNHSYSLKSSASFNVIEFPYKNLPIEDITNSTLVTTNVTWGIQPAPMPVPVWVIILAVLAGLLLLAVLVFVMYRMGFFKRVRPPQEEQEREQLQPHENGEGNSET
T1 sequence (P05106 27-788): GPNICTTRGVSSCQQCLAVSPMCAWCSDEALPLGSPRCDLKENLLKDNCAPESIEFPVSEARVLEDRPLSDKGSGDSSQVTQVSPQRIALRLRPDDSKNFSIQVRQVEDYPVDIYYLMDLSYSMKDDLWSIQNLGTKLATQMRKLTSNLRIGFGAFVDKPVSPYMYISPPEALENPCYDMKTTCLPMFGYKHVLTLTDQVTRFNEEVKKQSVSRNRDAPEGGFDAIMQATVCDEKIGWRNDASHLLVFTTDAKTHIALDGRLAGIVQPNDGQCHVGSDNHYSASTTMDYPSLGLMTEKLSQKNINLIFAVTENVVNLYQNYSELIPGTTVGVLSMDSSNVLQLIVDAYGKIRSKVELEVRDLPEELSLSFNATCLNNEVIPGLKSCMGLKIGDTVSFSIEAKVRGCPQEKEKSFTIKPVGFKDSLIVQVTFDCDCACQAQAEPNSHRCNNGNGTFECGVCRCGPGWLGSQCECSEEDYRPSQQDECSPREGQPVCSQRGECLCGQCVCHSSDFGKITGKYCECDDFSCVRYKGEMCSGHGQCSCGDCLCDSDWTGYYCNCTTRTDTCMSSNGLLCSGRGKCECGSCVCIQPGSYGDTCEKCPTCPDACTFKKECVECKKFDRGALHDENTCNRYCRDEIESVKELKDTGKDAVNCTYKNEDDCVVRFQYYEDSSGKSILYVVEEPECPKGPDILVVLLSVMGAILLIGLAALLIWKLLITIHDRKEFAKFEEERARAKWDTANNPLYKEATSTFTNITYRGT

[4] = target: T2, Integrin αvβ5 (Homo sapiens, UniProt P06756+P18084); experiment: Integrin αvβ5 binding affinity test
T2 construct: purchased Chemicon International, Inc
T2 sequence (P06756 31-889 limits assumed): as the sequence (P06756 31-889 limits assumed) above
T2 sequence (P06756 891-1048 partner limits assumed): as the sequence (P06756 891-1048 partner limits assumed) above
T2 sequence (P18084 24-799): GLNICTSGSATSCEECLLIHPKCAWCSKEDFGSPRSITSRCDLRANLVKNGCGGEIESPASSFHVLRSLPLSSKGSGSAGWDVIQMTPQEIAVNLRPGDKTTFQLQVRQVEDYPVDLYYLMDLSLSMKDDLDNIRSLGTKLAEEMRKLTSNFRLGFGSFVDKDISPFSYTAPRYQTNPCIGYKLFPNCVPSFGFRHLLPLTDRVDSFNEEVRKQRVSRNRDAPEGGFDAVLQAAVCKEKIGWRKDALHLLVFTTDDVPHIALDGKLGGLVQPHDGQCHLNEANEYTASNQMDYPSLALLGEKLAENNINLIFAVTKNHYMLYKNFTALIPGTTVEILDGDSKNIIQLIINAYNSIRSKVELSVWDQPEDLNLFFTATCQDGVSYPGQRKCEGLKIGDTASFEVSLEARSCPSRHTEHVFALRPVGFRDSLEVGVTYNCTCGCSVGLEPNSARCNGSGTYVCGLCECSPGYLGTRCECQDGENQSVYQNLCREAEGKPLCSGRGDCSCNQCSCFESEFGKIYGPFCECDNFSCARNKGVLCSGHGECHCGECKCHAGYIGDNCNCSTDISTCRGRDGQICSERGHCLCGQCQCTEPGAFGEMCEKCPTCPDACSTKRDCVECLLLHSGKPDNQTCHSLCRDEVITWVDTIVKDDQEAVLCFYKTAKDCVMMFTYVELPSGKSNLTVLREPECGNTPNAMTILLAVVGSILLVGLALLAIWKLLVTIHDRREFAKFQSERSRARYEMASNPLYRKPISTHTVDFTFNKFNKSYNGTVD

[5] = inhibition of biotinylated vitronectin binding to immobilized αvβ3, read-out: IC50 value αv β3
[6] = inhibition of biotinylated vitronectin binding to immobilized αvβ5, read-out: IC50 value αvβ5

IC50 [3, 5]: < 1 nM
IC50 [4, 6]: < 1 nM
SMILES: Cc1cc(OCCCC(=O)NCCNC(=O)[C@H](CS(=O)(=O)O)NC(=O)CN2CCN(CC(=O)O)CCN(CC(=O)O)CCN(CC(=O)O)CC2)cc(C)c1S(=O)(=O)N[C@@H](CNC(=O)CCCCc1ccc2c(n1)NCCC2)C(=O)O [Compound P2, 2,2′,2′-(10-(2-(((R)-1-((2-(4-(4-(N—((S)-1-carboxy-2-(5-(5,6,7,8-tetrahydro-1,8-naphthyridin-2-yl)pentanamido)ethyl)sulfamoyl)-3,5-dimethylphenoxy)butanamido)ethyl)amino)-1-oxo-3-sulfopropan-2-yl)amino)-2-oxoethyl)-1,4,7,10-tetraazacyclododecane-1,4,7-triyl)triacetic acid]

IC50 [3, 5]: < 1 nM
IC50 [4, 6]: < 1 nM
SMILES: Cc1cc(OCCCC(=O)NCCNC(=O)[C@H](CS(=O)(=O)O)NC(=O)CCC(C(=O)O)N2CCCN3CCN(CCCN(CC(=O)O)CC3)CC2)cc(C)c1S(=O)(=O)N[C@@H](CNC(=O)CCCCc1ccc2c(n1)NCCC2)C(=O)O (single isomer, unassigned) [Ab9-b]

Second part, the compound before the results:

SMILES: Cc1cc(OCCCC(=O)NCCNC(=O)C(CS(=O)(=O)O)NC(=O)C(CS(=O)(=O)O)NC(=O)CN2CCN(CC(=O)[O-])CCN(CC(=O)[O-])CCN(CC(=O)[O-])CC2)cc(C)c1S(=O)(=O)NC(CNC(=O)c1ccc(CCc2ccc3c(n2)NCCC3)cc1)C(=O)O.[90Y+3] (stereo not drawn) [[^90Y]-(A8)]
Rate of inhibition ([1]; 22 days after administration, above 100% indicated as 100%): 100%
Tumor volume 22 days after administration ([1]; n 8, Mean ± SD): 123 ± 60 mm^3
Tumor volume At start of administration ([1]; n 8, Mean ± SD, baseline): 201 ± 75 mm^3
The number of individuals having tumor regression ([1]; of n 8): 6
Rate of inhibition ([2]; Dose 5.55 MBa): 69%
Tumor volume 12 days after administration ([2]; Dose 5.55 MBa): 759 ± 344 mm^3
Tumor volume At start of administration ([2]; Dose 5.55 MBa): 239 ± 89 mm^3
The number of individuals having tumor regression ([2]; Dose 5.55 MBa): 0
Rate of inhibition ([2]; Dose 11.1 MBa): 100%
Tumor volume 12 days after administration ([2]; Dose 11.1 MBa): 199 ± 88 mm^3
Tumor volume At start of administration ([2]; Dose 11.1 MBa): 243 ± 101 mm^3
The number of individuals having tumor regression ([2]; Dose 11.1 MBa): 7
Rate of inhibition ([2]; Dose 14.8 MBa): 100%
Tumor volume 12 days after administration ([2]; Dose 14.8 MBa): 251 ± 112 mm^3
Tumor volume At start of administration ([2]; Dose 14.8 MBa): 251 ± 110 mm^3
The number of individuals having tumor regression ([2]; Dose 14.8 MBa): 6

SMILES: Cc1cc(OCCCC(=O)NCCNC(=O)C(CS(=O)(=O)O)NC(=O)CN2CCN3CCN4CCN(CC2)CC(=O)[O][In]([O]C(=O)C3)[O]C(=O)C4)cc(C)c1S(=O)(=O)NC(CNC(=O)CCCCc1ccc2c(n1)NCCC2)C(=O)O (stereo not drawn) [AA]
IC50 [3]: < 1 nM
IC50 [4]: < 1 nM

SMILES: Cc1cc(OCCCC(=O)NCCNC(=O)[C@H](CS(=O)(=O)O)NC(=O)CN2CCN(CC(=O)O)CCN(CC(=O)O)CCN(CC(=O)O)CC2)cc(C)c1S(=O)(=O)N[C@@H](CNC(=O)c1ccc(CCc2ccc3c(n2)NCCC3)cc1)C(=O)O [Compound B2, 2,2′,2″-(10-(2-(((R)-1-((2-(4-(4-(N—((S)-1-carboxy-2-(4-(2-(5,6,7,8-tetrahydro-1,8-naphthyridin-2-yl)ethyl)benzamido)ethyl)sulfamoyl)-3,5-dimethylphenoxy)butanamido)ethyl)amino)-1-oxo-3-sulfopropan-2-yl)amino)-2-oxoethyl)-1,4,7,10-tetraazacyclododecane-1,4,7-triyl)triacetic acid]
IC50 [3, 5]: < 1 nM
IC50 [4, 6]: < 1 nM
